Reference: article PMC3293837, “Biophysical Property and Broad Anti-HIV Activity of Albuvirtide, a 3-Maleimimidopropionic Acid-Modified Peptide Fusion Inhibitor” (PLoS ONE, 2012)
Read-outs that look alike come from different tables or passages of the source. Side chains are listed from the residue outwards. Peptide text beside a SMILES is read from it. * marks the point of attachment. Propanoyl(3-maleimido) = O=C1C=CC(=O)N1CCC(=O)*; AEEA = NCCOCCOCC(=O)O

How the values were obtained:
[1] = monkeys, intravenous, ref [25], cited from earlier work
[2] = rats, intravenous, ref [25], cited from earlier work
[3] = tested on: HIV-1NL4-3 V38A/N42T pseudovirus; type: cell-based
Method: (§1) HIV-1 pseudoviruses were generated as described previously [32], [55]–[56]. Briefly, 293T cells (5×10^6 cells in 15 ml of growth medium in a T-75 culture flask) were cotransfected with 10 µg of an Env-expressing plasmid and 20 µg of a backbone plasmid pSG3deltaEnv that encodes Env-defective, luciferase-expressing HIV-1 genome using Lipofectamine 2000 reagent (Invitrogen). Pseudovirus-containing culture supernatants were harvested 48 hours after transfection and filtered by 0.45-mm pore size, and stored at −80°C in 1-ml aliquots until use. The 50% tissue culture infectious dose (TCID50) of a single thawed aliquot of each pseudovirus batch was determined in TZM-bl cells. […] Briefly, the peptides were prepared with ten series dilutions in a 3-fold stepwise manner and mixed with 100 TCID50 viruses and incubated 1 hour at room temperature. The mixture was added to TZM-bl cells (10^4/well) and incubation at 37°C for 48 hours. Luciferase activity was measured using luciferase assay regents (Promega, Medison, WI) and a Luminescence Counter (Promega) according to the manufacture's instructions.

[4] = tested on: HIV-1NL4-3 Q40H pseudovirus; type: cell-based
Method: (§2) The mutations were created using double-stranded DNA templates and selection of mutants with DpnI. For each mutation, the two primers contained the desired mutation and occupied the same starting and ending positions on opposite strands of the plasmid DNA. DNA synthesis was carried out by PCR in a 50-µL reaction volume using 1 µL of denatured plasmid template (1 ng/µL), 50 pmol of upper and lower primers and 5 U of high-fidelity thermostable polymerase PrimeStar (Takara, Dalian, China). PCR amplification was carried out for one cycle of denaturation at 98°C for 5 min, then 18 cycles of 98°C for 15 s and 68°C for 15 min, followed a final extension at 72°C for 10 min. The amplicons were treated with the restriction enzyme DpnI for 1 h at 37°C. DpnI-resistant molecules, which were rich in the desired mutants, were recovered by transforming Escherichia coli strain-DH5α to antibiotic resistance. The successful mutations were confirmed by sequencing.
as §1

[5] = tested on: HIV-1NL4-3 N43K pseudovirus; type: cell-based
Method: as §2, §1

[6] = tested on: HIV-1NL4-3 Env-pseudotyped virus; type: cell-based
Method: as §1

[7] = tested on: HIV-1NL4-3 D36S/V38M pseudovirus; type: cell-based
Method: as §2, §1

[8] = tested on: HIV-1NL4-3 I37T/N43K pseudovirus; type: cell-based
Method: as §2, §1

[9] = tested on: HIV-1NL4-3 V38A pseudovirus; type: cell-based
Method: as §1

[10] = tested on: HIV-1NL4-3 D36G pseudovirus; type: cell-based
Method: as §1

[11] = tested on: HIV-1NL4-3 I37T pseudovirus; type: cell-based
Method: as §1

[12] = tested on: HIV-1NL4-3 V38M pseudovirus; type: cell-based
Method: as §1

[13] = after conjugation with serum albumin
[14] = value from which half-life was extended by albumin conjugation

For `CC[C@H](C)[C@H](NC(=O)[C@H](CC(C)C)NC(=O)[C@H](CCC(=O)O)NC(=O)[C@H](Cc1c[nH]cn1)NC(=O)[C@@H](NC(=O)[C@H](CC(C)C)NC(=O)[C@H](CCCCNC(=O)COCCOCCNC(=O)CCN1C(=O)C=CC1=O)NC(=O)[C@@H](NC(=O)[C@H](Cc1ccc(O)cc1)NC(=O)[C@H](CC(N)=O)NC(=O)[C@H](CC(N)=O)NC(=O)[C@@H](NC(=O)[C@H](CCC(=O)O)NC(=O)[C@H](CCCNC(=N)N)NC(=O)[C@H](CC(=O)O)NC(=O)[C@H](Cc1c[nH]c2ccccc12)NC(=O)[C@H](CCC(=O)O)NC(=O)[C@H](CCC(=O)O)NC(=O)[C@H](Cc1c[nH]c2ccccc12)NC(C)=O)[C@@H](C)CC)[C@@H](C)O)[C@@H](C)CC)C(=O)N[C@@H](CCC(=O)O)C(=O)N[C@@H](CCC(=O)O)C(=O)N[C@@H](CO)C(=O)N[C@@H](CCC(N)=O)C(=O)N[C@@H](CC(N)=O)C(=O)N[C@@H](CCC(N)=O)C(=O)N[C@@H](CCC(N)=O)C(=O)N[C@@H](CCC(=O)O)C(=O)N[C@@H](CCCCN)C(=O)N[C@@H](CC(N)=O)C(=O)N[C@@H](CCC(=O)O)C(=O)N[C@@H](CCC(N)=O)C(=O)N[C@@H](CCC(=O)O)C(=O)N[C@@H](CC(C)C)C(=O)N[C@@H](CC(C)C)C(N)=O` [ABT] (Ac-WEEWDREINNYTK([AEEA-Propanoyl(3-maleimido)])LIHELIEESQNQQEKNEQELL-NH2), the “in vivo half-life (extended, 'to')” value [1, 13] is listed as 102.4 h, the “in vivo half-life (before extension, 'from')” value [1, 14] is listed as 10.89 h and the “in vivo half-life (extended, 'to')” value [2, 13] is listed as 25.8 h. The “in vivo half-life (before extension, 'from')” value [2, 14] was 1.67 h.
With `Cc1cn([C@H]2C[C@H](N=[N+]=[N-])[C@@H](CO)O2)c(=O)[nH]c1=O` [AZT] the IC50 ([3]; HIV-1NL4-3 V38A/N42T, TZM-bl, 48 h, mean ± SD of three independent experiments) was 0.0381 ± 0.0037 µM, the “Fold change (in parentheses)” value ([3]; V38A/N42T, reference D36G) was 0.6 and the Fold change ([3]; V38A/N42T, reference wild-type) was 0.4. The IC50 ([4]; HIV-1NL4-3 Q40H, TZM-bl, 48 h, mean ± SD of three independent experiments) was 0.0332 ± 0.0072 µM, the “Fold change (in parentheses)” value ([4]; Q40H, reference D36G) was 0.6 and the Fold change ([4]; Q40H, reference wild-type) was 0.3. The IC50 ([5]; HIV-1NL4-3 N43K, TZM-bl, 48 h, mean ± SD of three independent experiments) was 0.153 ± 0.0074 µM, the “Fold change (in parentheses)” value ([5]; N43K, reference D36G) was 2.6 and the Fold change ([5]; N43K, reference wild-type) was 1.4. The IC50 ([6]; HIV-1NL4-3 WT pseudovirus, Table 3, TZM-bl, 48 h, mean ± SD of three independent experiments, read-out: IC50) was 0.107 ± 0.0232 µM, the “Fold change (in parentheses)” value ([6]; WT, reference D36G) was 1.8 and the Fold change ([6]; WT, reference wild-type) was 1.0. The “Fold change (in parentheses)” value ([7]; D36S/V38M, reference D36G) was 0.7, the Fold change ([7]; D36S/V38M, reference wild-type) was 0.4 and the IC50 ([7]; HIV-1NL4-3 D36S/V38M, TZM-bl, 48 h, mean ± SD of three independent experiments) was 0.0403 ± 0.0086 µM. For the same compound, the IC50 ([8]; HIV-1NL4-3 I37T/N43K, TZM-bl, 48 h, mean ± SD of three independent experiments) was 0.139 ± 0.0149 µM, the “Fold change (in parentheses)” value ([8]; I37T/N43K, reference D36G) was 2.3 and the Fold change ([8]; I37T/N43K, reference wild-type) was 1.3. For the same compound, the IC50 ([9]; HIV-1NL4-3 V38A, TZM-bl, 48 h, mean ± SD of three independent experiments) was 0.0423 ± 0.009 µM, the “Fold change (in parentheses)” value ([9]; V38A, reference D36G) was 0.7 and the Fold change ([9]; V38A, reference wild-type) was 0.4. For the same compound, the “Fold change (in parentheses)” value ([10]; D36G, reference D36G) was 1.0, the Fold change ([10]; D36G, reference wild-type) was 0.6 and the IC50 ([10]; HIV-1NL4-3 D36G, TZM-bl, 48 h, mean ± SD of three independent experiments) was 0.0594 ± 0.0059 µM. For the same compound, the IC50 ([11]; HIV-1NL4-3 I37T, TZM-bl, 48 h, mean ± SD of three independent experiments) was 0.0935 ± 0.0135 µM, the “Fold change (in parentheses)” value ([11]; I37T, reference D36G) was 1.6 and the Fold change ([11]; I37T, reference wild-type) was 0.9. For the same compound, the IC50 ([12]; HIV-1NL4-3 V38M, TZM-bl, 48 h, mean ± SD of three independent experiments) was 0.0478 ± 0.0037 µM, the “Fold change (in parentheses)” value ([12]; V38M, reference D36G) was 0.8 and the Fold change ([12]; V38M, reference wild-type) was 0.5.
